Reference: US3994882A, “Nitrofuran derivatives, process for the preparation thereof and compositions containing same as active ingredient” (Kabushiki Kaisha Ueno Seiyaku Oyo Kenkyujo, priority 1974, dated 1976)
≈ marks a conversion by molar mass, not a printed value.

How the values were obtained:
Escherichia coli K-74 = assay: Curative action in infected mice (Table 4); assay type: in vivo; conditions: K74, 168 h, mice infected abdominally, oral in 5% gum arabic, observation one week
Description: (§1) Next, in Table 4 are shown the curative actions (ED50 mg/Kg body wt.) and acute toxicities (LD50 mg/kg body wt.) of the typical nitrofuran derivatives of the present invention when used with infected mice.
(§2) Note.- The numerical values in the table denote the amounts per unit body
(§3) weight of the nitrofuran derivatives required for cure when the experimen
(§4) was carried out using mice of body weight of about 20 grams and injecting
(§5) thereinto abdominally the microorganism-containing solutions in amounts o
(§6) 0.2 ml (the microorganism-containing solutions used being those in the
(§7) cases of test microorganisms 1, 3 and 4 in which the microorganism cultur
(§8) liquids were diluted 10^5, 5 and 10^2 times, respectively, and in
(§9) the case of test microorganism 2 that which was concentrated 2 times),
(§10) after which the nitrofuran derivatives suspended in 5% gum arabic were
(§11) forcedly administered orally followed by observation for one week.

[1] = system: Streptococcus hemolyticus A 089; assay: Curative action in infected mice (Table 4); assay type: in vivo; conditions: Streptococcus pyogenes, A089, 168 h, mice infected abdominally, oral in 5% gum arabic, observation one week
Description: as §1, §2, §3, §4, §5, §6, §7, §8, §9, §10, §11

[2] = system: Salmonella typhimium K-52; assay: Curative action in infected mice (Table 4); assay type: in vivo; conditions: K52, 168 h, mice infected abdominally, oral in 5% gum arabic, observation one week
Description: as §1, §2, §3, §4, §5, §6, §7, §8, §9, §10, §11

[3] = system: Staphylococcus aureus 72r; assay: Curative action in infected mice (Table 4); assay type: in vivo; conditions: 168 h, mice infected abdominally, oral in 5% gum arabic, observation one week
Description: as §1, §2, §3, §4, §5, §6, §7, §8, §9, §10, §11

[4] = Acute toxicity in mice (Table 4); conditions: mouse, in vivo, po
Description: as §1

Bacillus Subtilis PCI219 = assay: Minimum growth inhibiting concentration (Table 1); assay type: cell-based; conditions: TSBI, pH 7.2, 37° C., 48 hours
Description: (§12) For information, the minimum growth inhibiting concentration is a value
(§13) concerning microorganisms cultivated in TSBI the pH of which was adjusted
(§14) to 7.2, each bacteria being incubated at 37° C. for 48 hours.

[5] = system: Salmonella pullorum chuyu 114; assay: Minimum growth inhibiting concentration (Table 1); assay type: cell-based; conditions: Salmonella enterica, TSBI, pH 7.2, 37° C., 48 hours
Description: as §12, §13, §14

[6] = system: Pseudomonas aeruguinosa 347; assay: Minimum growth inhibiting concentration (Table 1); assay type: cell-based; conditions: TSBI, pH 7.2, 37° C., 48 hours
Description: as §12, §13, §14

[7] = system: Diplococcus pneumoniae DP-1; assay: Minimum growth inhibiting concentration (Table 1); assay type: cell-based; conditions: Streptococcus pneumoniae, DP1, TSBI, pH 7.2, 37° C., 48 hours
Description: as §12, §13, §14

Escherichia coli O-55 = assay: Minimum growth inhibiting concentration (Table 1); assay type: cell-based; conditions: O55, TSBI, pH 7.2, 37° C., 48 hours
Description: as §12, §13, §14

Proteus vulgaris HX-19 = assay: Minimum growth inhibiting concentration (Table 1); assay type: cell-based; conditions: HX19, TSBI, pH 7.2, 37° C., 48 hours
Description: as §12, §13, §14

[8] = system: Streptococcus hemolyticus A 089; assay: Minimum growth inhibiting concentration (Table 1); assay type: cell-based; conditions: Streptococcus pyogenes, A089, TSBI, pH 7.2, 37° C., 48 hours
Description: as §12, §13, §14

[9] = system: Salmonella enteritidis 1891; assay: Minimum growth inhibiting concentration (Table 1); assay type: cell-based; conditions: Salmonella enterica, TSBI, pH 7.2, 37° C., 48 hours
Description: as §12, §13, §14

[10] = system: Klebsiella pneumoniae ST-101; assay: Minimum growth inhibiting concentration (Table 1); assay type: cell-based; conditions: ST101, TSBI, pH 7.2, 37° C., 48 hours
Description: as §12, §13, §14

[11] = system: Staphylococcus aureus 209P; assay: Minimum growth inhibiting concentration (Table 1); assay type: cell-based; conditions: TSBI, pH 7.2, 37° C., 48 hours
Description: as §12, §13, §14

[12] = in vivo; cited from earlier work
microorganisms = conditions: compound (A), background; cited from earlier work
infected mice = assay: Curative action in infected mice; assay type: in vivo; conditions: oral
Description: as §2, §3, §4, §5, §6, §7, §8, §9, §10, §11

[13] = system: Streptococcus hemolyticus, Staphylococcus aureus, Escherichia coli and salmonella species; conditions: cited from earlier work

SMILES | ED50 (Escherichia coli K-74) | ED50 [1] | ED50 [2] | ED50 [3] | LD50 [4] | MIC (Bacillus Subtilis PCI219) | MIC [5] | MIC [6] | MIC [7] | MIC (Escherichia coli O-55) | MIC (Proteus vulgaris HX-19) | MIC [8] | MIC [9] | MIC [10] | MIC [11] | Concentration in blood [12] | In vivo antimicrobial activity (microorganisms) | Curative effect in infected mice (in words) (infected mice) | Antimicrobial activity in vitro (in words) [13] | Concentration inhibiting the growth ([13]; in vitro, Streptococcus hemolyticus, Staphylococcus aureus, Escherichia coli and salmonella species)
O=C(NCCO)c1cccc(C=Cc2ccc([N+](=O)[O-])o2)c1 [Example 2, 2-Meta-[2'-(5"-nitro-2"-furyl)-vinyl]-benzoylamino-ethanol] | 45 mg/kg | 34 mg/kg | 150 mg/kg | 37 mg/kg | 2000 mg/kg | < 0.19 mg/L | 3.13 mg/L (≈ 10.4 µM) | 25 mg/L (≈ 82.7 µM) | < 0.19 mg/L | 3.13 mg/L (≈ 10.4 µM) | 6.25 mg/L (≈ 20.7 µM) | < 0.19 mg/L | 0.78 mg/L (≈ 2.58 µM) | 1.56 mg/L (≈ 5.16 µM) | 0.78 mg/L (≈ 2.58 µM) |  |  |  |  | 
O=C(NCCOCCO)c1ccc(C=Cc2ccc([N+](=O)[O-])o2)cc1 [Example 11, 2-Para-[2'-(5"-nitro-2"-furyl)-vinyl]-benzoylaminoethoxy-2-ethanol] | 29 mg/kg | 13 mg/kg | 100 mg/kg | 21 mg/kg | 1850 mg/kg | < 0.19 mg/L | 6.25 mg/L (≈ 18 µM) | 25 mg/L (≈ 72.2 µM) | 0.78 mg/L (≈ 2.25 µM) | 6.25 mg/L (≈ 18 µM) | 6.25 mg/L (≈ 18 µM) | < 0.19 mg/L | 1.56 mg/L (≈ 4.5 µM) | 3.13 mg/L (≈ 9.04 µM) | 1.56 mg/L (≈ 4.5 µM) |  |  |  |  | 
O=C(NCCCO)c1ccc(C=Cc2ccc([N+](=O)[O-])o2)cc1 [Example 4, 3-Para-[2'-(5"-nitro-2"-furyl)-vinyl]-benzoylamino-1-propanol] |  | 24 mg/kg | 125 mg/kg | 50 mg/kg | 1900 mg/kg | < 0.19 mg/L | 6.25 mg/L (≈ 19.8 µM) | > 25 mg/L | 6.25 mg/L (≈ 19.8 µM) | 3.13 mg/L (≈ 9.9 µM) | 6.25 mg/L (≈ 19.8 µM) | < 0.19 mg/L | 3.13 mg/L (≈ 9.9 µM) | 3.13 mg/L (≈ 9.9 µM) | 0.78 mg/L (≈ 2.47 µM) |  |  |  |  | 
NC(=O)c1ccc(C=Cc2ccc([N+](=O)[O-])o2)cc1 [Compound A, Para-[2-(5'-nitro-2'-furyl)-vinyl]-benzoylamine, reference compound] | > 400 mg/kg | > 400 mg/kg | > 400 mg/kg | > 400 mg/kg | > 400 mg/kg |  |  |  |  |  |  |  |  |  |  | can scarcely be noted | not observed | no curative effects were noted | extremely superior antimicrobial activity in vitro | 0.1-3 micrograms per milliliter
CC(O)CNC(=O)c1ccc(C=Cc2ccc([N+](=O)[O-])o2)cc1 (stereo not drawn) [Example 5, 3-Para[2'-(5"-nitro-2"-furyl)-vinyl]-benzoylamino-2-propanol] |  | 19 mg/kg | 110 mg/kg | 37 mg/kg | 1700 mg/kg | < 0.19 mg/L | 6.25 mg/L (≈ 19.8 µM) | > 25 mg/L | 0.78 mg/L (≈ 2.47 µM) | 6.25 mg/L (≈ 19.8 µM) | 3.13 mg/L (≈ 9.9 µM) | 0.19 mg/L (≈ 0.601 µM) | 1.56 mg/L (≈ 4.93 µM) | 3.13 mg/L (≈ 9.9 µM) | 0.78 mg/L (≈ 2.47 µM) |  |  |  |  | 
NC(=O)CNC(=O)c1ccc(C=Cc2ccc([N+](=O)[O-])o2)cc1 [Example 16, Para-[2-(5'-nitro-2'-furyl)-vinyl]-N-benzoylglycine amide] | 34 mg/kg | 34 mg/kg | 110 mg/kg | 30 mg/kg | 2000 mg/kg | < 0.19 mg/L | 3.13 mg/L (≈ 9.93 µM) | > 25 mg/L | 0.39 mg/L (≈ 1.24 µM) | 3.13 mg/L (≈ 9.93 µM) | 3.13 mg/L (≈ 9.93 µM) | < 0.19 mg/L | 0.78 mg/L (≈ 2.47 µM) | 3.13 mg/L (≈ 9.93 µM) | 0.78 mg/L (≈ 2.47 µM) |  |  |  |  | 
NC(=O)C(CO)NC(=O)c1ccc(C=Cc2ccc([N+](=O)[O-])o2)cc1 (stereo not drawn) [Example 19, Para-[2-(5'-nitro-2'-furyl)-vinyl]-N-benzoylserine amide] |  | 46 mg/kg |  | 65 mg/kg | > 2000 mg/kg | < 0.19 mg/L | 6.25 mg/L (≈ 18.1 µM) | 25 mg/L (≈ 72.4 µM) | 0.78 mg/L (≈ 2.26 µM) | 12.5 mg/L (≈ 36.2 µM) | 6.25 mg/L (≈ 18.1 µM) | < 0.19 mg/L | 1.56 mg/L (≈ 4.52 µM) | 6.25 mg/L (≈ 18.1 µM) | 1.56 mg/L (≈ 4.52 µM) |  |  |  |  | 
